Experimental data published in patent US20070129367A1, “Pyridine derivatives as cb2 receptor modulators” (priority 2002, published 2007).
Read-outs that look alike come from different tables or passages of the source.

Target: T1, human cannabinoid CB2 receptor (Homo sapiens, UniProt P34972)
T1 construct: expressed in transfected cells; host or cells: Saccharomyces cerevisiae strain MMY23 (cassette integrated at the ura3 locus, GPD promoter)
Assay: Cannabinoid CB2 receptor agonist activity in yeast (Saccharomyces cerevisiae) cells expressing the receptor, FDGlu fluorescence readout;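 for Emax: percent of the maximal response of the reference agonist HU210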
Format: cell-based
Details: for Emax: read-out: efficacy (Emax) at the cloned human cannabinoid CB2 receptor
Experimental: Determination of Cannabinoid CB2 Receptor Agonist Activity
The cannabinoid CB2 receptor agonist activity of the compounds of formula (I) was determined in accordance with the following experimental method.
Yeast (Saccharomyces cerevisiae) cells expressing the human cannabinoid CB2 receptor were generated by integration of an expression cassette into the ura3 chromosomal locus of yeast strain MMY23. This cassette consisted of DNA sequence encoding the human CB2 receptor flanked by the yeast GPD promoter to the 5′ end of CB2 and a yeast transcriptional terminator sequence to the 3′ end of CB2. MMY23 expresses a yeast/mammalian chimeric G-protein alpha subunit in which the C-terminal 5 amino acids of Gpa1 are replaced with the C-terminal 5 amino acids of human Gαi3 (as described in Brown et aL (2000), Yeast 16:11-22). Cells were grown at 30° C. in liquid Synthetic Complete (SC) yeast media (Guthrie and Fink (1991), Methods in Enzymology, Vol. 194) lacking uracil, tryptophan, adenine and leucine to late logarithmic phase (approximately 6 OD600/ml).
Agonists were prepared as 10 mM stocks in DMSO. […] Agonist solutions in DMSO (1% final assay volume) were transferred into black, clear bottom, microtitre plates from NUNC (96- or 384-well). […] This mixture (50 ul per well for 384-well plates, 200 ul per well for 96-well plates) was added to agonist in the assay plates (Multidrop 384, Labsystems). After incubation at 30° C. for 24 hours, fluorescence resulting from degradation of FDGlu to fluorescein due to exoglucanase, an endogenous yeast enzyme produced during agonist-stimulated cell growth, was determined using a Spectrofluor microtitre plate reader (Tecan; excitation wavelength: 485 nm; emission wavelength: 535 nm). Fluorescence was plotted against compound concentration and iteratively curve fitted using a four parameter fit to generate a concentration effect value. […] Equieffective molar ratio (EMR) values were calculated from the equation EMR=EC50 [compound X]/EC50 [HU210]
Where EC50 [compound X] is the EC50 of compound X and EC50 [HU210] is the EC50 of HU210.

[1] = agonist activity, yeast cells, 24 hours at 30° C., read-out: EC50 at the cloned human cannabinoid CB2 receptor

T1 sequence (P34972 whole entry): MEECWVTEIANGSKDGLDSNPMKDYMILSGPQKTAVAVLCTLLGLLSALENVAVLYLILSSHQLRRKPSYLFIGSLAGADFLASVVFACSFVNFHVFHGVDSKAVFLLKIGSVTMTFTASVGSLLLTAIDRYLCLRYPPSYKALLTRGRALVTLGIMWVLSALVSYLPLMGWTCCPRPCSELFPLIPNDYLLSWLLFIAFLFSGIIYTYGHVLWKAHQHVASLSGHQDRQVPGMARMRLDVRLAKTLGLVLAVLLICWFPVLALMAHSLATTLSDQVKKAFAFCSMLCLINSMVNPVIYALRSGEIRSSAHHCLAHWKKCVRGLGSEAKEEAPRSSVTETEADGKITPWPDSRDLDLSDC

EC50 [1]	SMILES	EC50	Emax
< 300 nM	CC(C)c1cc(Nc2ccc(C#N)cc2)ncc1C(=O)NCc1ccc(F)cc1 [Example 18, 6-(4-Cyano-phenylamino)-N-(4-fluoro-benzyl)-4-isopropyl-nicotinamide]	–	–
–	Cc1c(Cl)cccc1Nc1cc(C(C)C)c(C(=O)NCc2ccc(F)cc2)cn1 [Example 28, 6-(3-Chloro-2-methyl-phenylamino)-N-(4-fluoro-benzyl)-4-isopropyl-nicotinamide]	300 to 1000 nM	> 50%
–	CC(C)c1cc(Nc2cccc(Cl)c2)ncc1C(=O)NCc1ccc(C#N)cc1 [Example 5, 6-(3-Chloro-phenylamino)-N-(4-cyano-benzyl)-4-isopropyl-nicotinamide]	300 to 1000 nM	> 50%
–	CC(C)c1cc(Nc2cc(Cl)ccc2Cl)ncc1C(=O)NCc1ccc(F)cc1 [Example 74, 6-(2,5-Dichloro-phenylamino)-N-(4-fiuoro-benzyl)-4-isopropyl-nicotinamide]	300 to 1000 nM	> 50%
< 300 nM	CC(C)c1cc(Nc2cc(Cl)ccc2F)ncc1C(=O)NCc1ccc(F)cc1 [Example 72, 6-(5-Chloro-2-fluoro-phenylamino)-N-(4-fluoro-benzyl)-4-isopropyl-nicotinamide]	–	–
–	CC(C)c1cc(Nc2ccc(Cl)cc2F)ncc1C(=O)NCc1ccc(F)cc1 [Example 20, 6-(4-Chloro-2-fluoro-phenylamino)-N-(4-fluoro-benzyl)-4-isopropyl-nicotinamide]	< 300 nM	> 50%
–	O=C(NCc1ccc(F)cc1)c1cnc(Nc2cccc(Br)c2)cc1C(F)(F)F [Example 46, N-(4-Fluoro-benzyl)-6-(3-bromo-phenylamino)-4-trifluoromethyl-nicotinamide]	–	> 50%
–	O=C(NCc1ccnc(F)c1)c1cnc(Nc2cccc(Cl)c2)cc1C(F)(F)F [Example 45, N-(2-Fluoro-pyridin-4-ylmethyl)-6-(3-chloro-phenylamino)-4-trifluoromethyl-nicotinamide]	< 300 nM	> 50%
–	CC(C)c1cc(Nc2ccc(F)cc2Cl)ncc1C(=O)NCc1ccc(F)cc1 [Example 71, 6-(2-Chloro-4-fluoro-phenylamino)-N-(4-fluoro-benzyl)-4-isopropyl-nicotinamide]	< 300 nM	> 50%
–	O=C(NCc1ccncc1)c1cnc(Nc2cccc(Cl)c2)cc1C(F)(F)F [Example 1, 2-(3-Chlorophenylamino)-4-trifluoromethylpyridine-5-carboxylic acid (pyridin-4-ylmethyl) amide]	< 300 nM	> 50%
–	CC(C)c1cc(Nc2ccc(Br)cc2Cl)ncc1C(=O)NCc1ccc(F)cc1 [Example 21, 6-(4-Bromo-2-chloro-phenylamino)-N-(4-fluoro-benzyl)-4-isopropyl-nicotinamide]	< 300 nM	> 50%
–	CC(C)c1cc(Nc2cccc(Cl)c2)ncc1C(=O)NCc1ccc(F)cc1 [Example 3, 6-(3-Chlorophenylamino)-N-(4-fluorobenzyl)-4-isopropyl-nicotinamide]	–	> 50%
–	O=C(NCc1ccc(F)cc1)c1cnc(Nc2cccc(Cl)c2)cc1C(F)(F)F [Example 44, N-(4-Fluoro-benzyl)-6-(3-chloro-phenylamino)-4-trifluoromethyl-nicotinamide]	< 300 nM	> 50%
–	CC(C)c1cc(Nc2cccc(Cl)c2)ncc1C(=O)NCc1ccccc1 [Example 4, N-Benzyl-6-(3-chloro-phenylamino)-4-isopropyl-nicotinamide]	< 300 nM	> 50%
–	Cc1cccc(Nc2cc(C(C)C)c(C(=O)NCc3ccc(F)cc3)cn2)c1 [Example 29, N-(4-Fluoro-benzyl)-4-isopropyl-6-m-tolylamino-nicotinamide]	300 to 1000 nM	> 50%
300 to 1000 nM	CC(C)c1cc(Nc2ccc(C(F)(F)F)c(F)c2)ncc1C(=O)NCc1ccc(F)cc1 [Example 76, N-(4-fluoro-benzyl)-6-(3-Fluoro-4-trifluormethyl-phenylamino)-4-isopropyl-nicotinamide]	–	–
–	O=C(NCc1ccc(F)cc1)c1cnc(Nc2cc(Cl)cc(Cl)c2)cc1C(F)(F)F [Example 53]	< 300 nM	> 50%
–	O=C(NCc1ccc(F)cc1)c1cnc(Nc2ccc(Cl)cc2Cl)cc1C(F)(F)F [Example 52]	< 300 nM	> 50%
